Here are results for one compound from patent US20100105772A1, “USE OF NOVEL LIPID MEDIATORS TO INHIBIT ANGIOGENESIS” (priority 2008, published 2010).

For experiment [1], the system named is VEGFR-2 mRNA. The experiment in a line: Real-time PCR of VEGFR-2 mRNA in suture-induced inflamed corneas. The conditions noted are these: 24 h and 72 h after suture placement; vs vehicle-treated group. It is filed as in vivo, mice. As to the method:
FIG. 4. The Impact of Lipoxin on the mRNA Expression of VEGFs and VEGFRs in Inflamed Corneas. ATLa or vehicle was subconjunctivally injected at 0 h and 48 h after suture placement. For each compound treatment, corneas were harvested from a group of mice at 24 h, and another group at 72 h after suture placement, as well as from normal untreated control corneas (6 corneas per group). (A) VEGF ligand species (VEGF-A, VEGF-C, VEGF-D) and (B) VEGFRs (VEGFR2 and VEGFR3) were tested by real-time PCR and normalized to GAPDH mRNA. Values are expressed as fold change over the normal control cornea. Results represent the mean (±SEM) of three samples per group (each sample consisted of 2 pooled corneas), and the data are representative of two independent experiments (*P<0.05, **P<0.001, ***P<0.0005, vs vehicle-treated group, t-test). […]
BALB/c mice were randomized to receive ATLa, or vehicle (normal saline) by subconjunctival injection in a masked fashion after suture or hydron pellet placement. […] ATLa was synthesized as described previously.^20 The physical properties were monitored routinely via LC/MS/MS matching the reported biological and physical properties prior to analysis in present experiments. […]

Experiment [2] deals with macrophages. The experiment in a line: Macrophage infiltration in suture-induced inflamed corneas (F4/80 staining of cross-sections). The format is in vivo, mice. The conditions noted are these: 72 h after suture placement. The protocol: ATLa or vehicle was subconjunctivally injected at 0 h and 48 h after suture placement. For each compound treatment, eyes were enucleated from a group of mice at 24 h, and another group at 72 h after suture placement (3 eyes per group). Cross-sections were stained with anti-neutrophil (NIMP-R14) or anti-macrophage (F4/80) Ab, and 12 sections were used to enumerate the respective leukocyte populations. Results represent the mean (±SEM) of 3 eyes per group (*P<0.05, **P<0.001 vs vehicle-treated group, t-test), and data are representative of two independent experiments. […]
BALB/c mice were randomized to receive ATLa, or vehicle (normal saline) by subconjunctival injection in a masked fashion after suture or hydron pellet placement. […] ATLa was synthesized as described previously.^20 The physical properties were monitored routinely via LC/MS/MS matching the reported biological and physical properties prior to analysis in present experiments.
Full thickness corneal tissue or 8 μm-frozen sections were fixed in acetone for 15 minutes at room temperature. […] Finally, the samples were covered with mounting medium (Vector Laboratories, Burlingame, Calif.) and analyzed by epifluorescence microscopy (Eclipse E800; Nikon, Tokyo, Japan). […]

Turning to `COC(=O)CCC[C@H](O)[C@H](O)/C=C/C=C/C=C\C=C\[C@H](O)COc1ccc(F)cc1` [ATLa, 15-epi-16-(para-fluoro)-phenoxy-lipoxin A4 methyl ester], in experiment [1], the “VEGFR-2 mRNA expression” value is given as “lower”. Also, the macrophages per section in experiment [2] (n=3, mean±SEM) came out at 46±5 cells/section. Further, in experiment [2] (vs vehicle control group), the “reduction in macrophage infiltration” value is recorded as 25-40%.
